# Entries after “also recorded” stand apart in the source; their conditions may differ. Like-named read-outs stand apart in the source and are kept apart here.
# Legend:
# [1] = tested on: male CD-1 mice; test: T-maze spontaneous alternation, LPS-induced cognitive deficit; type: in vivo, mouse; conditions: for Spontaneous alternation (%) Mean: LPS 250 μg/kg i.p.; for Recovery (%): saline/vehicle = 100%, LPS/vehicle = 0%
# Source text: Encephalitis refers to inflammation of the brain that may result in brain swelling fever, headache, confusion, and seizures. The source of neuroinflammation can vary widely, including due to viral, bacterial, parasitic, or fungal infection or due to autoimmune diseases. Lipopolysaccharide (LPS) is a bacterial endotoxin that induces an intense neuroinflammatory reaction and has been associated with cognitive decline. The ability of Compound A19 to reverse cognitive decline induced by LPS in a mouse model of encephalitis was studied using a T-maze assay. In a separate substantially similar assay, Compounds 1a and 5a were also assessed.
# Spontaneous and continuous alternation is the innate tendency of rodents to alternate free choices in a T-maze (T-CAT) over a series of successive runs. This sequential procedure relies on working memory and is sensitive to various pharmacological manipulations affecting memory processes. The present studies were conducted to evaluate the abilities of Compound A19, Compound 1a and Compound 5a to reverse LPS-induced cognitive deficit in the T-maze assay.
# Compound A19 was dissolved in 0.9% NaCl (saline) and vortexed periodically until complete dissolution and with the pH adjusted between 7.4 and 7.8. Compound A19 was used in concentrations of 0.125, 0.1, 0.05, 0.025 and 0.0125 mg/ml which when given in a volume of 10 ml/kg result in doses of 1.25, 1, 0.5, 0.25 and 0.125 mg/kg, respectively. Compound 1a was dissolved at 160 mg/ml in 100% DMSO and vortexed until complete dissolution. Then the above stock solution was diluted in 20% PEG-400 and 78% 0.9% NaCl, whereby the stock solution comprised 2% of the final solution. Compound 1a was used in concentrations of 0.05, 0.2, 0.8, 1.6 and 3.2 mg/ml which when given in a volume of 10 ml/kg result in doses of 0.5, 2, 8, 16 and 32 mg/kg, respectively. Compound 5a was dissolved at 100 mg/ml in 100% DMSO and vortexed until complete dissolution. Then the above stock solution was diluted in 20% PEG-400 and 78% 0.9% NaCl, whereby the stock solution comprised 2% of the final solution. Compound 5a was used in concentrations of 0.125, 0.25, 0.5, 1 and 2 mg/ml which when given in a volume of 10 ml/kg result in doses of 1.25, 2.5, 5, 10 and 20 mg/kg, respectively.
# Memantine was dissolved in saline. Memantine was used in concentration of 0.1 and 0.01 mg/ml, which when given in a volume of 10 ml/kg result in a dose of 1 and 0.1 mg/kg, respectively. Memantine is approved for symptomatic treatment of Alzheimer's disease was used as a reference compound.
# LPS was dissolved in saline and prepared at a concentration of 0.0125 mg/ml and given intraperitoneally (i.p.) at a dosage volume of 20 ml/kg to yield a dose of 0.25 mg/kg ([…]).
# Four to five weeks old male CD-1 mice (Janvier; Le Genest St Isle - France) were used for the study.
# LPS was injected i.p. 2 weeks prior the T-maze trial. Compound 1a was tested at doses of 0.5, 2, 8, 16, and 32 mg/kg administered orally (p.o.) for 14 days with last treatment given 60 min before the T-maze trial. Compound 5a was tested at the doses of 1.25, 2.5, 5, 10, and 20 mg/kg administered orally (p.o.) for 14 days with last treatment given 60 min before the T-maze trial. LPS was injected i.p. 2 weeks prior the T-maze trial.
# The T-maze apparatus was made of gray Plexiglas with a main stem (55 cm long×10 cm wide×20 cm high) and two arms (30 cm long×10 cm wide×20 cm high) positioned at a 90-degree angle relative to the main stem. A start box (15 cm long×10 cm wide) was separated from the main stem by a guillotine door. Horizontal doors were also provided to close specific arms during the force choice alternation task.
# The experimental protocol consisted of a single session, which started with one “forced-choice” trial, followed by 14 “free-choice” trials. In the “forced-choice” trial, the animal was confined 5 seconds in the start arm and was then released while either the left or right goal arm was blocked by a horizontal door. […]
# [2] = tested on: Rat primary cortical neuron cultures; test: Neuroprotection of rat primary cortical neurons against neurotoxic insults (Cell Titer-Glo viability); type: cell-based
# Source text: HGF/MET signaling activation is expected to protect cells, including neurons, from cell death. […] Hydrogen peroxide (H2O2) treatment produces toxic oxidative stress. Bacteria-derived lipopolysaccharide (LPS) treatment induces inflammatory cell death. Treatment with excess glutamate (Glut) produces excitotoxicity in neuron cultures. Treatment with 1-methyl-4-phenylpyridinium (MPP^+) causes cell death by inhibition of mitochondrial function.
# Cells were then subjected to individual conditional insults for 24 hours at the following concentrations: H2O2 at 1 uM, LPS at 1 uM, glutamate at 25 uM, or MPP+ at 500 uM. All treatments contained recombinant human HGF (R&D Systems) at a concentration of 5 ng/ml. MK-801 (Dizocilpine) is a pore blocker of the N-Methyl-D-aspartate (NMDA) receptor, a glutamate receptor, and was used as a positive control.
# Data was normalized to DMSO+HGF control set at 100% cell viability.
# Data are reported as statistical significance vs. insult control, with NS=not significant, +=p<0.05, ++=p<0.01, and +++=p<0.001.
# [3] = tested on: Rat primary cortical neuron cultures; conditions: LPS 24 h
# Description: To assess the neuroprotective effect of compound treatment against inflammatory insult, primary cultured cortical neurons were subjected to lipopolysaccharide (LPS) treatment for 24h along with various compound doses of compounds of Formula (I) or Compound A19. […] Rat primary cortical neuron cultures were grown at 37° C., 5% C02 in Complete Neurobasal Medium supplemented with B27/GDNF/BDNF containing 10% FBS until maturity. 25 μl of culture volume were seeded in a 384-well plate at 5,000 cells/well, and treated with 1 μM, 100 nM, 10 nM, 1 nM, or 0.1 nM of test compound for 15 minutes. Cells were then subjected to 1 μM LPS challenge for 24 hours. Luminescence measurements to assess relative levels of ATP were performed on an Envision plate reader (Perkin Elmer). Data for DMSO control were set to 100% cell viability, and each group (n=4) were averaged and presented as mean±SEM.
smiles,measurement,setting,value
CCC(C)CN1CC2N(C(=O)c3ccc(C(F)(F)F)cc3)CCC(=O)N2[C@@H](C)C1=O (some centres unmarked) [Compound 1a],Reversal of LPS-induced cognitive deficit in T-maze (result in words),"[1]; ANOVA, Fisher's PLSD, p<0.05, doses as in the value",significant reversal of LPS-induced cognitive deficits at 2 mg/kg; also recorded: trending at 8 and 32 mg/kg; also recorded: reversed the LPS-induced cognitive disruption
same,Spontaneous alternation (%) Mean,[1]; Compound 1a 0.5 mg/kg p.o. daily 14 days,49%
same,Spontaneous alternation (%) Mean,"[1]; Compound 1a 0.5 mg/kg p.o. daily 14 days, listed as Cmpd 1a",48.6%
same,Recovery (%),[1]; Compound 1a 0.5 mg/kg p.o.,17%
same,Spontaneous alternation (%) Mean,[1]; Compound 1a 2 mg/kg p.o. daily 14 days,59%
same,Spontaneous alternation (%) Mean,"[1]; Compound 1a 2 mg/kg p.o. daily 14 days, listed as Cmpd 1a",58.6%
same,Recovery (%),[1]; Compound 1a 2 mg/kg p.o.,56%
same,Spontaneous alternation (%) Mean,[1]; Compound 1a 8 mg/kg p.o. daily 14 days,56%
same,Spontaneous alternation (%) Mean,"[1]; Compound 1a 8 mg/kg p.o. daily 14 days, listed as Cmpd 1a",56.4%
same,Recovery (%),[1]; Compound 1a 8 mg/kg p.o.,47%
same,Spontaneous alternation (%) Mean,[1]; Compound 1a 16 mg/kg p.o. daily 14 days,51%
same,Spontaneous alternation (%) Mean,"[1]; Compound 1a 16 mg/kg p.o. daily 14 days, listed as Cmpd 1a",51.4%
same,Recovery (%),[1]; Compound 1a 16 mg/kg p.o.,28%
same,Spontaneous alternation (%) Mean,[1]; Compound 1a 32 mg/kg p.o. daily 14 days,56%
same,Spontaneous alternation (%) Mean,"[1]; Compound 1a 32 mg/kg p.o. daily 14 days, listed as Cmpd 1a",55.7%
same,Recovery (%),[1]; Compound 1a 32 mg/kg p.o.,44%
same,Statistical significance vs. insult control (cell viability),"[2]; Glutamate (25 uM) insult, [Compound 1a] 0.1 nM + HGF (5 ng/ml)",+++ (+++=p<0.001)
same,Statistical significance vs. insult control (cell viability),"[2]; Glutamate (25 uM) insult, [Compound 1a] 1 nM + HGF (5 ng/ml)",+++ (+++=p<0.001)
same,Statistical significance vs. insult control (cell viability),"[2]; Glutamate (25 uM) insult, [Compound 1a] 100 nM (second column headed 100 nM) + HGF (5 ng/ml)",+++ (+++=p<0.001)
same,Statistical significance vs. insult control (cell viability),"[2]; Glutamate (25 uM) insult, [Compound 1a] 100 nM + HGF (5 ng/ml)",+++ (+++=p<0.001)
same,Statistical significance vs. insult control (cell viability),"[2]; Glutamate (25 uM) insult, [Compound 1a] 1 uM + HGF (5 ng/ml)",+++ (+++=p<0.001)
same,Statistical significance vs. insult control (cell viability),"[2]; H2O2 (1 uM) insult, [Compound 1a] 0.1 nM + HGF (5 ng/ml)",+++ (+++=p<0.001)
same,Statistical significance vs. insult control (cell viability),"[2]; H2O2 (1 uM) insult, [Compound 1a] 1 nM + HGF (5 ng/ml)",+++ (+++=p<0.001)
same,Statistical significance vs. insult control (cell viability),"[2]; H2O2 (1 uM) insult, [Compound 1a] 100 nM (second column headed 100 nM) + HGF (5 ng/ml)",+++ (+++=p<0.001)
same,Statistical significance vs. insult control (cell viability),"[2]; H2O2 (1 uM) insult, [Compound 1a] 100 nM + HGF (5 ng/ml)",+++ (+++=p<0.001)
same,Statistical significance vs. insult control (cell viability),"[2]; H2O2 (1 uM) insult, [Compound 1a] 1 uM + HGF (5 ng/ml)",+++ (+++=p<0.001)
same,Neuroprotection against the cohort of insults (result in words),"[2]; H2O2, glutamate, LPS, MPP+, broad range of concentrations",effective neuroprotective treatment at a broad range of concentrations against the entire cohort of insults tested
same,Statistical significance vs. insult control (cell viability),"[2]; LPS (1 uM) insult, [Compound 1a] 0.1 nM + HGF (5 ng/ml)",+++ (+++=p<0.001)
same,Statistical significance vs. insult control (cell viability),"[2]; LPS (1 uM) insult, [Compound 1a] 100 nM (second column headed 100 nM) + HGF (5 ng/ml)",+++ (+++=p<0.001)
same,Statistical significance vs. insult control (cell viability),"[2]; LPS (1 uM) insult, [Compound 1a] 100 nM + HGF (5 ng/ml)",+++ (+++=p<0.001)
same,Statistical significance vs. insult control (cell viability),"[2]; LPS (1 uM) insult, [Compound 1a] 1 uM + HGF (5 ng/ml)",+++ (+++=p<0.001)
same,Statistical significance vs. insult control (cell viability),"[2]; MPP+ (500 uM) insult, [Compound 1a] 0.1 nM + HGF (5 ng/ml)",+++ (+++=p<0.001)
same,Statistical significance vs. insult control (cell viability),"[2]; MPP+ (500 uM) insult, [Compound 1a] 1 nM + HGF (5 ng/ml)",+++ (+++=p<0.001)
same,Statistical significance vs. insult control (cell viability),"[2]; MPP+ (500 uM) insult, [Compound 1a] 100 nM (second column headed 100 nM) + HGF (5 ng/ml)",+++ (+++=p<0.001)
same,Statistical significance vs. insult control (cell viability),"[2]; MPP+ (500 uM) insult, [Compound 1a] 100 nM + HGF (5 ng/ml)",+++ (+++=p<0.001)
same,Statistical significance vs. insult control (cell viability),"[2]; MPP+ (500 uM) insult, [Compound 1a] 1 uM + HGF (5 ng/ml)",+++ (+++=p<0.001)
same,Significance of neuroprotection vs 1 uM LPS,[3]; dose 0.1 nM,+++ (+++ indicates p<0.001)
same,Significance of neuroprotection vs 1 uM LPS,[3]; dose 1 nM,+++ (+++ indicates p<0.001)
same,Significance of neuroprotection vs 1 uM LPS,[3]; dose 10 nM,+++ (+++ indicates p<0.001)
same,Significance of neuroprotection vs 1 uM LPS,[3]; dose 100 nM,+++ (+++ indicates p<0.001)
same,Significance of neuroprotection vs 1 uM LPS,[3]; dose 1 μM,+++ (+++ indicates p<0.001)

# From patent publication US20250275976A1, “Methods of Treating Neuroinflammatory Conditions” (Athira Pharma, Inc., priority 2022, published 2025)
